Results: patent US20050281904A1, “Kefir extract as an anti-cancer agent” (McGill University, priority 2000, published 2005)

Experiments:
MCF-7 cells [1] = assay: Cell proliferation experiments, MCF-7 cells (cell numbers after 8 days); type: cell-based, human; conditions: for antiproliferative effect on MCF-7 cells (dose effect): HPLC fractions or ceramide compounds alone
Description: MCF7-E3 human breast cancer estrogen-sensitive cells were provided by Dr. D. Desaulniers of Health Canada, Ottawa. Cells were routinely propagated as a monolayer culture in Dulbcco's Modified Eale Medium (DMEM) supplemented with 10% heat-inactivated fetal bovine serum (FBS), in 75-cm^2 plastic dish at 37° C. in a humidified atmosphere with 5% CO2, and passage 3-4 days a time. A normal human mammary epithelial cell line was provided by Dr. M. Stampfer of UC Livermore Labs. Cells were routinely propagated as a monolayer culture in Mammary Epithelial Growth Media (MEGM, Clonetics, San Diego) supplemented with 10% heat-inactivated fetal bovine serum (FBS), in 75-cm^2 plastic dish at 37° C. in a humidified atmosphere with 5% CO2, and passage every week. For the experiments, both cells were harvest from the dish using 0.25% trypsin-EDTA solution.
Four kefir products (K1-K4) collected at various stages of kefir production at Liberty Brand Products, Inc. (Montreal, Canada) were used in this study. The large-scale production of kefir involves a two-step fermentation process. The first step is to prepare the cultures by incubating milk with kefir grains (2-10%) (K1) and fermented for 24 hrs. The grains are then removed by filtration and the resulting mother culture (K2) is added to pasteurized milk (K3), which is further fermented for 12 hrs and this final product (K4) is packaged for the consumer market. A pasteurized milk sample (M1) and two yogurt products; mixture of yogurt bacteria, pasteurized milk and milk powder (Y1) and the final yogurt product after 12 hrs of fermentation (Y2) were included for comparison. The yeast and bacteria in the samples were removed by centrifugation and filtration. About 35 ml each of the seven samples was centrifuged (32,000×g, 60 min, 4° C.) and the supernatant was filtered through a 0.45 μm Millipore filter followed by a 0.2 μm Millipore filter (Millipore Corporation, Bedford, USA). Extracts from two separate batches of kefir and yogurt were used.
Cells previously harvested were seeded in 24-well plates; 10,000 cells for MCF-7 per well in DMEM supplemented with 10% FBS and 5,000 cells for HMEC per well in MEGM supplemented with 10% FBS. The cells were allowed to attach for 24 hours. […] Cells were incubated at 37° C. in a humidified atmosphere with 5% CO2 for 8 days and the cell numbers in each well were counted using a Coulter Counter (Coulter Counter Corporation, USA). […]
The cell numbers expressed as percentage of control from different treatments and dose were compared using two-way ANOVA. When the interaction between treatments and dose was also significant the difference between treatment groups was determined by Tukey's HSD multiple comparison test. […]

MCF-7 cells [2] = conditions: 1 μM; cited from earlier work

CC/C(=C(\c1ccccc1)c1ccc(OCCN(C)C)cc1)c1ccccc1 [Tamoxifen]
dosage showing antiproliferative effect on MCF-7 cells (MCF-7 cells [1]): above 0.2 μM/L

ceramide 1-phosphate
antiproliferative effect on MCF-7 cells (dose effect) (MCF-7 cells [1]): did not

ceramide I
antiproliferative effect on MCF-7 cells (dose effect) (MCF-7 cells [1]): strong dose dependent antiproliferative effect

CCCCCCCCCCCCC/C=C/[C@@H](O)[C@H](CO)NC(=O)CCCCC [C6 ceramide]
levels of angiogenesis stimulators VEGF and cathepsin D (MCF-7 cells [2]): below 50 % of the control | antiproliferative effect on MCF-7 cells (dose effect) (MCF-7 cells [1]): strong dose dependent antiproliferative effect
